Measurements as given in patent US20210290721A1, “ORAL FORMULATIONS FOR PROMOTING CELLULAR PURIFICATION” (NSE Products, Inc., priority 2011, published 2021).

What was measured:
[1] = system: iNOS/Nos2; test: RT-qPCR expression of iNOS/Nos2 in lung of young mice; assay type: in vivo, C57BL/6J mice; details: diet supplemented from 8 to 22 weeks of age, treated vs YC
Text: C57BL/6J mice were obtained at 6 weeks of age and individually housed in shoebox cages and provided with 24 grams (˜84 kcal) of AIN-93^M diet per week (7 grams on Monday and Wednesday and 10 grams on Friday). Starting at 8 weeks of age and continuing until 22 weeks of age, mice were either 1) maintained on the AIN93^M diet (Young Controls, YC); 2) fed a Calorie Restricted (CR) diet providing 63 kcal/week of a modified AIN93^M formulation; or 3) were assigned to an AIN93^M diet supplemented with one of several plant extracts, vitamins or phytochemicals; the amount of each ingredient per kilogram diet varied depending on the experimental ingredient studied. At 22 weeks of age, tissues were collected from mice, flash-frozen in liquid nitrogen and stored at −80° C. for later analysis.
To determine if CR or an ingredient positively influenced the Nrf2 pathway to regulate expression of xenobiotic metabolism genes and oxidative stress genes and/or positively influenced genes responsible for regulation of inflammation, we performed quantitative real-time PCR (RT-qPCR) analysis on RNA isolated from entire livers and lungs from all groups of mice. Briefly, the magnitude of change was determined for each gene, comparing the young control (YC) group vs. the caloric or energy restriction (CR) group and YC vs. Treated mice. […]

[2] = system: GCLC; test: RT-qPCR expression of GCLC in gastrocnemius muscle of old mice; assay type: in vivo, B6C3F1 mice; details: for effect on age-related decreases in the expression of GCLC: YC vs OC and OC vs old treated mice; for GCLC expression: diet supplemented from 14 to 30 months of age, old treated vs old controls (OC)
Text: (§1) B6C3F1 mice were obtained and housed as in Example 1. For the young control (YC) group, starting at 8 weeks of age and continuing until 22 weeks of age, mice were maintained on the AIN93^M diet; For the old animal groups, starting at 14 months of age and continuing until 30 months of age, mice were either 1) maintained on the AIN93^M diet (old controls, OC); 2) fed a calorie or energy restricted (CR) diet providing 63 kcal/week of a modified AIN93^M formulation; or 3) were assigned to an AIN93^M diet supplemented with one of several plant extracts, vitamins or phytochemicals; the amount of each ingredient per kilogram diet varied depending on the experimental ingredient studied. At the end of the feeding period, tissues were collected from the gastrocnemius muscles of the mice, flash-frozen in liquid nitrogen and stored at −80° C. for later analysis.
To determine if CR or an ingredient opposed age-related declines in the Nrf2 pathway to regulate expression of xenobiotic metabolism genes and oxidative stress genes, we performed quantitative real-time PCR (RT-qPCR) analysis on RNA isolated from gastrocnemius muscle from all groups of mice. The magnitude of change was determined for each gene (YC vs. OC and OC vs Old treated mice). Two-tailed t-tests (assuming equal variance) were used to determine if the change in expression for individual genes was statistically significant. The magnitude of the change in expression is reported as “fold change” values which are log 2-adjusted to fit normality assumptions for statistical analyses.
A panel of 5 genes representative of the Nrf2 pathway was selected for screening the ingredients: GCLM, GCLC, GSR, GSTA1, and NQO1. Ingredients screened in the muscle included: alpha lipoic acid, CoQ10, Pomegranate, Resveratrol and others.

[3] = system: GSR; test: RT-qPCR expression of GSR in gastrocnemius muscle of old mice; assay type: in vivo, B6C3F1 mice
Text: as §1, with “analysis. To determine if CR or an ingredient opposed age-related declines in the Nrf2 pathway to regulate expression of xenobiotic metabolism genes and oxidative stress genes, we performed quantitative real-time PCR (RT-qPCR) analysis on RNA isolated from gastrocnemius muscle from all groups of mice. The magnitude of change was determined for each gene (YC vs. OC and OC vs Old treated mice). Two-tailed t-tests (assuming equal variance) were used to determine if the change in expression for individual genes was statistically significant. […]” for “analysis.”

[4] = system: Nrf2/ARE/detoxification related genes; test: RT-qPCR gene expression screening in liver of young mice fed ingredient-supplemented diet; assay type: in vivo, C57BL/6J mice; details: diet supplemented from 8 to 22 weeks of age, treated vs young control (YC)

| Compound | change in iNOS/Nos2 expression in the lung [1] | effect on age-related decreases in the expression of GCLC [2] | GCLC expression [2] | effect on age-related decreases in the expression of GSR ([3]; YC vs OC and OC vs old treated mice) | GSR expression ([3]; diet supplemented from 14 to 30 months of age, old treated vs OC) | gene expression changes in the liver (impact of ingredient) [4] |
| --- | --- | --- | --- | --- | --- | --- |
| COC1=C(OC)C(=O)C(C/C=C(\C)CC/C=C(\C)CC/C=C(\C)CC/C=C(\C)CC/C=C(\C)CC/C=C(\C)CC/C=C(\C)CC/C=C(\C)CC/C=C(\C)CCC=C(C)C)=C(C)C1=O [CoQ10, coenzyme Q10] | Modest downregulation | opposed age related decreases | upregulated |  |  |  |
| O=C(O)CCCCC1CCSS1 (stereo not drawn) [alpha lipoic acid] |  | opposed age-related decreases | upregulated | opposed age-related decreases | upregulated | greatest positive impact |
| O=c1c(O)c(-c2ccc(O)c(O)c2)oc2cc(O)cc(O)c12 [quercetin, Quercetin] | Modest downregulation |  |  |  |  |  |
